In ChEMBL document CHEMBL1150507, “New hydroxy-amido-anthraquinones as potential antineoplastic drugs” (1992):

Key:
HeLa = assay: Compound was tested for tumor cell growth inhibition against HeLa cell line; format: functional; details: Homo sapiens, read-out: ID50 (the source's name)
HL-60 = assay: Compound was tested for tumor cell growth inhibition against HL 60 cell line; format: functional; details: Homo sapiens, read-out: ID50 (the source's name)

Row | IC50 (HeLa) [nM] | IC50 (HL-60) [nM] | SMILES
1 | 26100 | 1640 | CCN(CC)CC(=O)Nc1ccc(O)c2c1C(=O)c1c(O)ccc(O)c1C2=O
2 | 8050 | 110 | CCN(CC)CCC(=O)Nc1ccc(O)c2c1C(=O)c1c(O)ccc(O)c1C2=O
3 | 3140 | 100 | CCN(CC)CCC(=O)Nc1ccc(NC(=O)CCN(CC)CC)c2c1C(=O)c1c(O)ccc(O)c1C2=O
4 | > 38000 | 4900 | CCN(CC)CC(=O)Nc1ccc(NC(=O)CN(CC)CC)c2c1C(=O)c1c(O)ccc(O)c1C2=O

Row | SMILES | IC50 (HeLa) [nM] | IC50 (HL-60) [nM]
5 | O=C1c2c(O)ccc(O)c2C(=O)c2c(NCCNCCO)ccc(NCCNCCO)c21 [MITOXANTRONE] | 2770 | 90
